Literature values as cited in US20070155747A1, “INHIBITORS OF FATTY ACID AMIDE HYDROLASE” (KADMUS PHARMACEUTICALS, INC., priority 2005, published 2007).

Tested on: FAAH
Details: literature (Kathuria et al. 2003; Mor et al. 2004; WO 2004/033422)

Compound: NC(=O)c1cccc(-c2cccc(OC(=O)NC3CCCCC3)c2)c1 [KDS-4103]
- inhibition of FAAH activity: potent and selective inhibitors of FAAH activity
